Test results: US8512708B2, “GP96 derived peptides” (Compugen Ltd., priority 2008, dated 2013)

Assays:
[1] = test system: A549 cells; format: cell-based, human; settings: 48 hours, MTT, 0.3-90 μg/ml peptide
Protocol: (§1) A549 cells were seeded at 6000 cells/well in 200 μA of media (DMEM medium+5% FBS) in a 96 well plate and incubated over-night (O.N). Cells were starved in 100 μl of serum free medium (SFM) containing 0.1% FBS, O.N. All lyophilized peptides were dissolved in H2O (prewarmed to 50° C.) and hand-stirred, giving a final concentration of 1 mg/ml. Reconstituted peptides were added in concentrations of 0.3, 1, 3, 10, 30 or 90 μg/ml and the cells were incubated for 48 hours.
(§2) Cell proliferation was measured using MTT assay as follows: 20 μl of MTT solution ((3-[4,5-Dimethyl-2-thiazolyl]-2,5-diphenyl-2H-tetrazolium bromide, Sigma Cat#M5655, lot#085k5322, 1 gr was dissolved in 200 ml H2O and filtered, giving a final concentration of 5 mg/ml) were added to each well for 4 hrs, after which the medium was vacuumed and 100 μl of DMSO were added to each well. Absorbance was measured in an ELISA reader at 492 nm. The results are shown in FIG. 8, and depicted in percent relative to untreated cells (which was defined as 100).

[2] = test system: THP-1 cells; assay: LPS-induced TNF-α secretion from THP-1 cells (ELISA); format: cell-based, human; settings: LPS 100 ng/ml, 4 hours
Protocol: THP-1 cells were seeded at 2×10^5 cells/ml in 100 μl of media (RPMI-1640 medium+10% FBS) in a 96 well plates. The reconstituted peptide at final concentrations of 20, 60, 180, 540, 1620, 4860 or 14580 nM were added to the relevant wells in a volume of 100 μl and LPS at a final concentration of 100 ng/ml (Sigma, Cat # L-6529, Lot #054K4022, stock concentration of 1 mg/ml) was added to the wells in a volume of 100 μl. Plates were incubated for 4 hours and then centrifuged 5 minutes at 4000 rpm. Conditioned medium (200 μl) was transferred to new plates and kept at −20° C. The concentration of TNF-α was measured using TNF-α ELISA (R&D Systems, Human TNF-alpha Quantikine ELISA Kit, Cat # STA00C).
THP-1 cells were seeded at 2×10^5 cells/ml in 100 μl of media (RPMI-1640 medium+10% FBS) in 96 well plates. The reconstituted peptide at final concentrations of 0.3, 1, 10, 30 or 60 μg/ml were added to the relevant wells in a volume of 100 μl and LPS at a final concentration of 100 ng/ml (Sigma, Cat # L-6529, Lot #054K4022, stock concentration of 1 mg/ml) was added to the wells in a volume of 100 Plates were incubated for 4 hours and then centrifuged 5 minutes at 4000 rpm. Conditioned medium (200 μl) was transferred to new plates and kept at −20° C. The concentration of TNF-α was measured using TNF-α ELISA (R&D Systems, Human TNF-alpha Quantikine ELISA Kit, Cat # STA00C).

[3] = test system: human PBMCs; assay: Anti-CD3-induced cytokine release from human PBMCs (Luminex); format: cell-based; settings: PBMCs treated with anti-CD3 antibody (1 μg/ml), 48 hours; peptide 30 μg/ml=6 μM (FIG. 2)
Protocol: Peptides were assayed at two concentrations (3 and 30 ug/mL) in duplicates. Cryopreserved PBMCs were drip-thaw and seeded at 1×10^4 cells/well in 140 μl of media per well. Cells were incubated for 1 hour at 37° C. at 5% CO2 and a peptide of the invention or Dexamethasone as a control, were added in 20 μl of medium. Cells were incubated for 30 minutes and anti-CD3 antibody (1 μg/ml) was added at the appropriate concentration in 40 μl of medium. Plates were incubated for 48 hours, spinned at 1200 rpm for 10 minutes and supernatants were collected and stored at −80° C. Cytokines' concentration was measured using a Luminex analyzer (IS100, Luminex Corporation) and bead-based reagents (Upstate Biotechnology).

[4] = test system: SW480; assay: Proliferation of SW480 cells (MTT assay); format: cell-based, human; settings: SW480, 48 hours, 0.003-60 μg/ml peptide
Protocol: as §1, with “Cells” for “A549 cells”, “5000” for “6000”, “μl” for “μA”, “0.003, 0.009, 0.028, 0.084, 0.25, 0.76, 2.28, 6.66, 20 and 60” for “0.3, 1, 3, 10, 30 or 90”
as §2, with “assay:” for “assay as follows:”, “nm.” for “nm. The results are shown in FIG. 8, and depicted in percent relative to untreated cells (which was defined as 100).”

[5] = test system: HCT116; assay: Proliferation of HCT116 cells (MTT assay); format: cell-based, human; settings: HCT116, 48 hours, 0.003-60 μg/ml peptide
Protocol: as §1, with “Cells” for “A549 cells”, “5000” for “6000”, “μl” for “μA”, “0.003, 0.009, 0.028, 0.084, 0.25, 0.76, 2.28, 6.66, 20 and 60” for “0.3, 1, 3, 10, 30 or 90”
as §2, with “assay:” for “assay as follows:”, “nm.” for “nm. The results are shown in FIG. 8, and depicted in percent relative to untreated cells (which was defined as 100).”

[6] = test system: HT29; assay: Proliferation of HT29 cells (MTT assay); format: cell-based, human; settings: HT29, 48 hours, 0.003-60 μg/ml peptide
Protocol: as §1, with “Cells” for “A549 cells”, “5000” for “6000”, “μl” for “μA”, “0.003, 0.009, 0.028, 0.084, 0.25, 0.76, 2.28, 6.66, 20 and 60” for “0.3, 1, 3, 10, 30 or 90”
as §2, with “assay:” for “assay as follows:”, “nm.” for “nm. The results are shown in FIG. 8, and depicted in percent relative to untreated cells (which was defined as 100).”

[7] = test system: MCF7; assay: Proliferation of MCF7 cells (MTT assay); format: cell-based, human; settings: MCF7, 48 hours, 0.003-60 μg/ml peptide
Protocol: as §1, with “Cells” for “A549 cells”, “5000” for “6000”, “μl” for “μA”, “0.003, 0.009, 0.028, 0.084, 0.25, 0.76, 2.28, 6.66, 20 and 60” for “0.3, 1, 3, 10, 30 or 90”
as §2, with “assay:” for “assay as follows:”, “nm.” for “nm. The results are shown in FIG. 8, and depicted in percent relative to untreated cells (which was defined as 100).”

Row | Molecule | inhibition of proliferation, dose dependence [1] | inhibition of LPS-induced TNF-α secretion ([2]; 30 μg/ml peptide) | decrease of IL-1α [3] | decrease of IL-1β [3] | decrease of IL-2 release [3] | decrease of IL-12p40 [3] | decrease of IL-12p70 [3] | decrease of TNFα [3] | inhibition of GM-CSF release [3] | inhibition of proliferation, dose dependence [4] | inhibition of proliferation, dose dependence [5] | inhibition of LPS-induced TNF-α secretion ([2]; 10 μg/ml peptide) | inhibition of proliferation, dose dependence [6] | inhibition of proliferation, dose dependence [7]
1 | CC[C@H](C)[C@H](NC(=O)[C@H](CCCCN)NC(=O)[C@H](CCCCN)NC(=O)[C@@H](NC(=O)[C@H](CCSC)NC(=O)[C@H](CC(=O)O)NC(=O)[C@H](CC(C)C)NC(=O)[C@@H](NC(=O)[C@H](CCCCN)NC(=O)[C@H](CCCNC(=N)N)NC(=O)[C@@H](NC(=O)[C@H](CC(C)C)NC(=O)[C@H](CCCCN)NC(=O)[C@H](CCCCN)NC(=O)[C@H](CCCNC(=N)N)NC(=O)[C@@H](NC(=O)[C@@H](NC(=O)[C@H](CCCCN)NC(=O)[C@H](CC(C)C)NC(=O)[C@H](CC(C)C)NC(=O)[C@H](CCCCN)NC(=O)[C@H](Cc1c[nH]cn1)NC(=O)[C@H](CCC(N)=O)NC(=O)[C@H](CCC(N)=O)NC(=O)[C@H](CC(C)C)NC(=O)[C@@H](NC(C)=O)[C@@H](C)O)C(C)C)[C@@H](C)CC)C(C)C)[C@@H](C)O)[C@@H](C)CC)C(=O)N[C@@H](C)C(=O)N[C@@H](CC(=O)O)C(=O)N[C@@H](CC(=O)O)C(=O)N[C@@H](CCCCN)C(=O)N[C@@H](Cc1ccc(O)cc1)C(N)=O [CGEN-GP4] | dose-dependent | 100% | – | – | – | – | – | – | – | – | – | – | – | –
2 | IYVWSSKTETVEEPMEEEEAAKEEKEESDDEA (Ac-IYVWSSKTETVEEPMEEEEAAKEEKEESDDEA-NH2) [CGEN-GP3] | – | – | 30% | 60% | 70% | 40% | 70% | approximately 30% | no effect | – | – | – | – | –
3 | Ac-HKLLKVIRKKLVRKTLDMIKKIADDKYNDTFWKEF-NH2 [CGEN-GP5] | dose-dependent | – | – | – | – | – | – | – | – | dose-dependent | dose-dependent | 100% | dose-dependent | dose-dependent
